For experiment [1], the target named is T1, Human vitronectin receptor (αvβ3) (Homo sapiens, UniProt P05106+P06756).
T1 construct: Human vitronectin receptor (αvβ3) was purified from human placenta; from tissue; host or cells: human placenta
In words: Vitronectin adhesion assay (solid phase receptor assay, competition with biotinylated vitronectin). As to conditions: read-out: AvB3 IC50. Format: binding. The gist of the method: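 Purified human αvβ3 coated overnight at 4 °C in TBS with 1.0 mM Ca++, Mg++, Mn++, pH 7.4; compounds (top final 1.0×10^−4 M) competed with 1 nM biotinylated vitronectin for 2 h at room temperature. Bound ligand detected by HRP anti-biotin/OPD at A450; values normalized to no-competitor controls, four-parameter curve fit.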

The target in experiment [2] is T2, Human fibrinogen receptor (αIIbβ3) (Homo sapiens, UniProt P05106+P08514).
T2 construct: Human fibrinogen receptor (αIIbβ3) was purified from outdated platelets; from tissue; host or cells: outdated human platelets
The experiment in a line: Purified IIb/IIIa receptor assay (solid phase receptor assay, competition with biotinylated vitronectin). The class given is binding. The conditions noted are these: read-out: IIb/IIIa IC50. The method in brief:
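Competition format: 1 nM biotinylated vitronectin plus test compound (highest 1.0×10^−4 M), 2 h at room temperature on wells coated with platelet-derived αIIbβ3. Buffer was TBS containing 1.0 mM Ca, Mg, Mn, pH 7.4. HRP anti-biotin readout at 450 nm; normalized to maximum binding, four-parameter curve fit.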

Where a name gives a salt, the structure may show the parent alone. Bounds are passed on as bounds.

On to `C/N=C(\NC)Nc1cccc(C(=O)NCC(=O)NC(CC(=O)O)c2cc(Cl)cc(Cl)c2)c1` (racemic) [Example 294, (±)3,5-dichloro-β-[[2-[[[3-[[(methylamino)(methylimino)methyl]amino]phenyl]carbonyl]amino]acetyl]amino]benzenepropanoic acid, trifluoroacetate salt], for which the IC50 in experiment [1] was found to be 0.173 µM; in experiment [2], 1.99 µM.
On the same counts, the results for `CCN/C(=N\C)Nc1cccc(C(=O)NCC(=O)NC(CC(=O)O)c2cc(Cl)cc(Cl)c2)c1` (racemic) [Example 295, (±)3,5-dichloro-β-[[2-[[[3-[[(ethylamino)(methylimino)methyl]amino]phenyl]carbonyl]amino]acetyl]amino]benzenepropanoic acid, trifluoroacetate salt] are 0.144 µM and 4.56 µM.
For the compound `C/N=C(/Nc1cccc(C(=O)NCC(=O)NC(CC(=O)O)c2cc(Cl)cc(Cl)c2)c1)NC(C)C` (racemic) [Example 296, (±)3,5-dichloro-β-[[2-[[[3-[[[(1-methylethyl)amino](methylimino)methyl]amino]phenyl]carbonyl]amino]acetyl]amino]benzenepropanoic acid, trifluoroacetate salt], the results for the IC50 in experiment [1] and in experiment [2] were 0.404 µM and 9.45 µM, respectively.
In the same order, the values of `CCN/C(=N\C)Nc1cccc(C(=O)NCC(=O)NC(CC(=O)O)c2ccc(F)cc2)c1` (racemic) [Example 297, (±)β-[[2-[[[3-[[(ethylamino)(methylimino)methyl]amino]phenyl]carbonyl]amino]acetyl]amino]-4-fluorobenzenepropanoic acid, trifluoroacetate salt] are 0.0898 µM and 3.92 µM.
On the same counts, the results for `C/N=C(/Nc1cccc(C(=O)NCC(=O)NC(CC(=O)O)c2ccc(F)cc2)c1)NC(C)C` (racemic) [Example 298, (±)4-fluoro-β-[[2-[[[3-[[[(1-methylethyl)amino](methylimino)methyl]amino]phenyl]carbonyl]amino]acetyl]amino]benzenepropanoic acid, trifluoroacetate salt] are 0.252 µM and 5.56 µM.
On the same counts, the results for `C/N=C(\NCc1ccncc1)Nc1cccc(C(=O)NCC(=O)NC(CC(=O)O)c2ccc(F)cc2)c1` (racemic) [Example 299, (±)4-fluoro-β-[[2-[[[3-[[[(4-pyridinylmethyl)amino](methylimino)methyl]amino]phenyl]carbonyl]amino]acetyl]amino]benzenepropanoic acid, trifluoroacetate salt] are 0.109 µM and 0.927 µM.
For the compound `CC1(C)CN=C(Nc2cccc(C(=O)NCC(=O)NC(CC(=O)O)c3cc(Cl)cc(Cl)c3O)c2)NC1` (racemic) [Example 362, (±)3,5-dichloro-2-hydroxy-β-[[2-[[[3-[(1,4,5,6-tetrahydro-5,5-dimethylpyrimidin-2-yl)amino]phenyl]carbonyl]amino]acetyl]amino]benzenepropanoic acid, trifluoroacetate salt], the IC50 in experiment [1] is 0.00084 µM; in experiment [2], 7.26 µM.
In the same order, the values of `N=C(N)Nc1cccc(C(=O)NCC(=O)NC(CC(=O)O)c2ncc[nH]2)c1` (racemic) [Example 364, (±)β-[[2-[[[3-[(aminoiminomethyl)amino]phenyl]carbonyl]amino]acetyl]amino]-1H-imidazole-2-propanoic acid, tris(trifluoroacetate)salt] are 0.00358 µM and 0.223 µM.
On the same counts, the results for `N=C(N)Nc1cccc(C(=O)NCC(=O)NC(CC(=O)O)c2c(F)c(F)cc(F)c2F)c1` (racemic) [Example 365, (±)β-[[2-[[[3-[(aminoiminomethyl)amino]phenyl]carbonyl]amino]acetyl]amino]-2,3,5,6-tetrafluorobenzenepropanoic acid, trifluoroacetate salt] are 0.0169 µM and 8.47 µM.
On the same counts, the results for `CC1(C)CN=C(Nc2cccc(C(=O)NCC(=O)NC(CC(=O)O)c3cc(Cl)cc(Cl)c3)c2)NC1` (racemic) [Example 367, (±)3,5-dichloro-β-[[2-[[[3-[(1,4,5,6-tetrahydro-5,5-dimethylpyrimidin-2-yl)amino]phenyl]carbonyl]amino]acetyl]amino]benzenepropanoic acid, trifluoroacetate salt] are 0.00035 µM and 1.54 µM.
As to `N=C(N)Nc1cccc(C(=O)NCC(=O)NC(CC(=O)O)c2ccc(Cl)s2)c1` (stereo not drawn) [251(C), β-[[2-[[[3-[(aminoiminomethyl)amino]phenyl]carbonyl]amino]acetyl]amino]-5-chlorothiophene-2-propanoic acid, trifluoroacetate salt], the results for the IC50 in experiment [1] and in experiment [2] were 0.00076 µM and 0.124 µM, respectively.
As to `N=C(N)Nc1cccc(C(=O)NC2(C(=O)NC(CC(=O)O)c3cccnc3)CC2)c1` (stereo not drawn) [Example 19, β-[[1-[[[3-[(aminoiminomethyl)amino]phenyl]carbonyl]amino]cycloprop-1-yl]carbonyl]amino]pyridine-3-propanoic acid, bis(trifluoroacetate)salt], the IC50 in experiment [1] amounted to 0.303 µM; in experiment [2] it was 72 µM.
In the same order, the values of `C#C[C@H](CC(=O)OCC)NC(=O)CNC(=O)c1cccc(NC(=N)N)c1` [Example 58, ethyl 3S-[[2-[[[3-[(aminoiminomethyl)amino]phenyl)carbonyl]amino]acetyl]amino]-4-pentynoate, trifluoroacetate salt] are 0.162 µM and 5.74 µM.
For `CC(NC(=O)c1cccc(NC(=N)N)c1)C(=O)NC(CC(=O)O)c1cccnc1` (stereo not drawn) [Example 82, β-[[2-[[[3-[(aminoiminomethyl)amino]phenyl]carbonyl]amino]-1-oxopropyl]amino]pyridine-3-propanoic acid, bis(trifluoroacetate)salt], the IC50 in experiment [1] is 0.334 µM; in experiment [2], 0.353 µM.
In the same order, the values of `Cc1ccc(C(=O)NCC(=O)NC(CC(=O)O)c2cccnc2)cc1N` (stereo not drawn) [Example 84, β-[[2-[[(3-amino-4-methylphenyl)carbonyl]amino]acetyl]amino]pyridine-3-propanoic acid, bis(trifluoroacetate)salt] are 2.8 µM and 0.246 µM.
Take `CCOC(=O)CCNC(=O)CNC(=O)c1cccc(NC(=N)N)c1` [Example 96, N-[2-[[[3-[(aminoiminomethyl)amino]phenyl]carbonyl]amino]acetyl]-β-alanine, ethyl ester]: the IC50 in experiment [1] worked out at 1.81 µM; in experiment [2], 5.4 µM.
In the same order, the values of `CCOC(=O)CC(NC(=O)CNC(=O)c1cccc(NC2=NCCS2)c1)c1cccnc1` (stereo not drawn) [Example 100, ethyl β-[[2-[[[3-[(4,5-dihydrothiazol-2-yl)amino]phenyl]carbonyl]amino]acetyl]amino]pyridine-3-propanoate, trifluoroacetate salt] are 8.56 µM and above 100 µM.
With `O=C(O)CC(NC(=O)CNC(=O)c1cccc(NC2=NCCS2)c1)c1cccnc1` (stereo not drawn) [Example 101, β-[[2-[[[3-[(4,5-dihydrothiazol-2-yl)amino]phenyl]carbonyl]amino]acetyl]amino]pyridine-3-propanoic acid, trifluoroacetate salt], the IC50 in experiment [1] came to 1.68 µM; in experiment [2], 65.7 µM.
On the same counts, the results for `CCOC(=O)CC(NC(=O)CNC(=O)c1cccc(NC(=O)Nc2ccccc2)c1)c1cccnc1` (stereo not drawn) [Example 107, ethyl β-[[2-[[[3-[[(phenylamino]carbonyl]amino]phenyl]carbonyl]amino]acetyl]amino]-pyridine-3-propanoate] are 6.4 µM and 18.7 µM.
On the same counts, the results for `CCOC(=O)CC(NC(=O)CNC(=O)c1cccc(NC(N)=O)c1)c1cccnc1` (stereo not drawn) [Example 109, ethyl β-[[2-[[[3-(aminocarbonylamino]phenyl]carbonyl]amino]acetylamino]pyridine-3-propanoate, trifluoroacetate salt] are 0.575 µM and above 100 µM.
In the same order, the values of `Cc1ccc(S(=O)(=O)NC(=O)Nc2cccc(C(=O)NCC(=O)NC(CC(=O)O)c3cccnc3)c2)cc1` (stereo not drawn) [Example 112, β-[[2-[[[3-[[[[(4-methylphenyl)sulfonyl]amino]carbonyl]amino]phenyl]carbonyl]amino]acetyl]amino]pyridine-3-propanoic acid, trifluoroacetate salt] are 0.284 µM and 6.34 µM.
In the case of `CCOC(=O)CC(NC(=O)CNC(=O)c1cccc(NC(N)=S)c1)c1cccnc1` (stereo not drawn) [Example 113, ethyl β-[[2-[[[3-[(aminothioxomethyl)amino]phenyl]carbonyl]amino]acetyl]amino]pyridine-3-propanoate, trifluoroacetate salt], the IC50 in experiment [1] is 0.276 µM; in experiment [2] it was at least 100 µM.
In the same order, the values of `CCOC(=O)CC(NC(=O)CNC(=O)c1cccc(NC(N)=S)c1)c1ccccc1` (stereo not drawn) [Example 116, ethyl β-[[2-[[[3-[(aminothioxomethyl)amino]phenyl]carbonyl]amino]acetyl]amino]benzenepropanoate] are 15.5 µM and above 100 µM.
In the same order, the values of `CCOC(=O)CC(NC(=O)CNC(=O)c1cccc(NC(=O)NCc2ccccc2)c1)c1ccc2c(c1)OCO2` (stereo not drawn) [Example 121, ethyl β-[[2-[[[3-[[[(phenylmethyl)amino]carbonyl]amino]phenyl]carbonyl]amino]acetyl]amino]-1,3-benzodioxole-5-propanoate] are 2.84 µM and above 100 µM.

Values taken from patent US6831199B1, “Pyrimidine compounds and derivatives thereof” (G. D. Searle & Co., priority 1995, dated 2004).
